Measurements as given in paper PMC12651750 (Cells, 2025).

Target: T1, HDAC6 (Homo sapiens, UniProt Q9UBN7)
T1 sequence (Q9UBN7 1-1215): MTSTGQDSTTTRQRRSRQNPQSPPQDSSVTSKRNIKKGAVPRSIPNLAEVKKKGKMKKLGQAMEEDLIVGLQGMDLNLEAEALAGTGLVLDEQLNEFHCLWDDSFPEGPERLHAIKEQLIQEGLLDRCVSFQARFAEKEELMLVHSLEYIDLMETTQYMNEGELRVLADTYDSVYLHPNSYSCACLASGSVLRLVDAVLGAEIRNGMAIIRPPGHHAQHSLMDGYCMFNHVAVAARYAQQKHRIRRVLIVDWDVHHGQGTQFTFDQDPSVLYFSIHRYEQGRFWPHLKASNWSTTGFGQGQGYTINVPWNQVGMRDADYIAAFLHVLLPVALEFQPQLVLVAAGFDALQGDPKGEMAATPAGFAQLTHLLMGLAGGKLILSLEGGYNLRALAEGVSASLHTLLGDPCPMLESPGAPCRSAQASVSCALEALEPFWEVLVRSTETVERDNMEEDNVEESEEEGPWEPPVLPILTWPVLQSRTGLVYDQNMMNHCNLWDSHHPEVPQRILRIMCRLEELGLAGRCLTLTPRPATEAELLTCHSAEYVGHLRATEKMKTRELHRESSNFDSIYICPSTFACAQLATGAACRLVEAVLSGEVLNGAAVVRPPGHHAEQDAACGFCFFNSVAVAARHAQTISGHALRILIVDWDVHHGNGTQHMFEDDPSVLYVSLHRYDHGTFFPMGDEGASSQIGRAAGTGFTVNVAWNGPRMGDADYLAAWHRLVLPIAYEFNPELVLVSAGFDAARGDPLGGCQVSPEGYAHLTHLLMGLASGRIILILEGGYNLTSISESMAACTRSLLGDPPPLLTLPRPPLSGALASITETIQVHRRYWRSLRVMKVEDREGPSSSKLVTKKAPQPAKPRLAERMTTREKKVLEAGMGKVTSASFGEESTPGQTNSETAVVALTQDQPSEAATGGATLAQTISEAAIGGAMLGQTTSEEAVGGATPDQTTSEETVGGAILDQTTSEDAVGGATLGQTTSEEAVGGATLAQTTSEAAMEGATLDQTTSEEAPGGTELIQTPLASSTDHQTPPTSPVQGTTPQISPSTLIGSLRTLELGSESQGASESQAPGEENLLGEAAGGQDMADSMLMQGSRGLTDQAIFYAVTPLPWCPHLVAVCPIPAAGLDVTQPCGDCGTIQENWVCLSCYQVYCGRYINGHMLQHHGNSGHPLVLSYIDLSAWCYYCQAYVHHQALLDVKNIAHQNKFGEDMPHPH
Assay: In vitro HDAC enzymatic inhibition assay (HDAC kit, fluorescence)
Description: Enzymatic assays were performed by Shanghai ChemPartner according to the HDAC kit protocol. […] Fluorescence was recorded at 355 nm excitation and 460 nm emission on a Synergy MX reader (PerkinElmer Life Sciences, Boston, MA, USA). IC50 values were derived from dose–response curves.

## Cc1cccc2c(=O)c3c(NCCCCCC(=O)NO)ccc([N+](=O)[O-])c3[nH]c12 [NBU-2, N-hydroxy-6-((5-methyl-4-nitro-9-oxo-9,10-dihydroacridin-1-yl)amino)hexanamide]
  IC50: 7.34 ± 0.6 nM
